# Square brackets hold non-standard residues; d marks the D form. Ends that are not written are not given here. Peptide text beside a SMILES is read from it. 1Nal = N[C@@H](Cc1cccc2ccccc12)C(=O)O
# Columns and labels:
# Staphylococcus aureus = assay: Radial diffusion bactericidal assay, Staphylococcus aureus; type: cell-based; details: radial diffusion; PROBIT analysis; S. aureus
# [1] = tested on: rough mutant E. coli J5 bacteria; assay: Radial diffusion bactericidal assay, E. coli J5; type: cell-based; details: for pmol added to well to achieve a 30 mm^2 bactericidal zone, E. coli J5 / bactericidal activity (in words): radial diffusion; for pmol added to well to achieve a 30 mm^2 bactericidal zone, E. coli J5: PROBIT analysis, E. coli J5 (rough); for activity of position 95 substitution variants (in words): activity not further specified; for bactericidal activity (in words): E. coli J5
# In short: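 Log-phase bacteria, washed in 10 mM sodium phosphate pH 7.4, were seeded at 4×10^6 CFU/mL in underlayer agarose. BPI fragments (5 or 10 μL) went into 3 mm wells for 3 h at 37° C., then overlayer agarose was added. After overnight 37° C. incubation, clearing zones were measured by micrometer.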
# RAW 264.7 cells = assay: LPS neutralization cellular proliferation assay, RAW 264.7 cells; type: cell-based, mouse
# Method: In this assay, mouse RAW 264.7 cells (ATCC Accession No. T1B71), maintained in RPMI 1640 media (GIBCO), supplemented with 10 mM HEPES buffer (pH 7.4), 2 mM L-glutamine, penicillin (100U/mL), streptomcin (100 μg/mL), 0.075% sodium bicarbonate, […] 2-mercaptoethanol and 10% fetal bovine serum (Hyclone, Inc., Logan, Utah), were first induced by incubation in the presence of 50U/mL recombinant mouse y-interferon (Genzyme, Cambridge, Mass.) for 24 h prior to assay. Induced cells were then mechanically collected and centrifuged at 500×g at 4° C. and then resuspended in 50 mL RPMI 1640 media (without supplements), re-centrifuged and again resuspended in RPMI 1640 media (without supplements). The cells were counted and their concentration adjusted to 2×10^5 cells/mL and 100 μL aliquots were added to each well of a 96-well microtitre plate. The cells were then incubated for about 15 hours with E. coli O113 LPS (Control Standard. Assoc. of Cape Cod. Woods Hole, Mass.), which was added in 100 μL/well aliquots at a concentration of […] in serum-free RPMI 1640 media (this concentration being the result of titration experiments in which LPS concentration was varied between 50 pg/mL and 100 ng/mL). This incubation was performed in the absence or presence of BPI functional domain peptides in varying concentrations between 25 ng/mL and 50 μg/mL. Recombinant human BPI was used as a positive control at a concentration of 1 μg/mL. Cell proliferation was quantitatively measured by the addition of 1 μCi/well [^3H]-thymidine 5 hours after the time of initiation of the assay. After the 15-hour incubation, labeled cells were harvested onto glass fiber filters with a cell harvester (Inotech Biosystems, EQ-384, Sample Processing and Filter Counting System, Lansing, Mich.).
# [2] = 3H-heparin binding assay (affinity and capacity); details: for Heparin Capacity: heparin bound at saturation; for Kd: read-out: Heparin Affinity
# In short: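 Bound 3H-heparin was counted by liquid scintillation after 1 h incubation at 4 °C with fragments immobilised on PVDF-bottomed wells, then washing in blocking buffer. Signal was corrected for BSA-related background, and varying amounts of rBPI23 were used as positive control.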
# [3] = tested on: E. coli 0111:B4 (smooth) bacteria; assay: Radial diffusion bactericidal assay, E. coli 0111:B4; type: cell-based; details: radial diffusion; PROBIT analysis; E. coli O111:B4 (smooth)
# Candida albicans = type: cell-based
Compound,"pmol added to well to achieve a 30 mm^2 bactericidal zone, S. aureus (Staphylococcus aureus)","pmol added to well to achieve a 30 mm^2 bactericidal zone, E. coli J5 [1]",EC50 (peptide concentration at which the growth inhibitory effect of LPS was reversed by 50%) (RAW 264.7 cells) [µg/mL],IC50 (peptide concentration at which RAW cell growth was inhibited by 50%) (RAW 264.7 cells),Heparin Capacity [2] [ng],Kd [2] [nM],"pmol added to well to achieve a 30 mm^2 bactericidal zone, E. coli O111:B4 [3]",activity of position 95 substitution variants (in words) [1],bactericidal activity (in words) [1],heparin binding capacity (in words) [2],MIC C. alb (Candida albicans) [µg/mL],behaviour in the RAW 264.7 proliferation assay (in words) (RAW 264.7 cells)
CC[C@H](C)[C@H](N)C(=O)N[C@@H](CCCCN)C(=O)N[C@H](C(=O)N[C@@H](CO)C(=O)NCC(=O)N[C@@H](CCCCN)C(=O)N[C@@H](Cc1cccc2ccccc12)C(=O)N[C@@H](CCCCN)C(=O)N[C@@H](C)C(=O)N[C@@H](CCC(N)=O)C(=O)N[C@@H](Cc1ccccc1)C(=O)N[C@@H](CCCNC(=N)N)C(=O)N[C@@H](Cc1ccccc1)C(=O)N[C@@H](CC(C)C)C(=O)N[C@@H](CCCCN)C(=O)N[C@@H](CCCCN)C(=O)N[C@@H](CO)C(=O)N[C@@H](CCCCN)C(=O)N[C@H](C(=O)NCC(=O)N[C@@H](Cc1c[nH]c2ccccc12)C(=O)N[C@@H](CC(C)C)C(=O)N[C@H](C(=O)N[C@@H](Cc1ccccc1)C(=O)N[C@@H](CC(C)C)C(=O)N[C@@H](Cc1ccccc1)C(=O)N[C@@H](Cc1c[nH]cn1)C(=O)N[C@@H](CCCCN)C(=O)N[C@@H](CCCCN)C(=O)O)[C@@H](C)CC)C(C)C)[C@@H](C)CC [BPI.98] (H-IKISGK[1Nal]KAQFRFLKKSKVGWLIFLFHKK-OH),b (no detectable activity up to 5 μg/well),"4,384.14 pmol",0.16 ± 0.08,16.5 ± 1.9 µg/mL,1678.4,683,"63,709.98 pmol",–,–,–,–,–
IKISGKWKAQWRFLK [BPI.77],"1,684.35 pmol",455.08 pmol,10 ± 32,>50 µg/mL,581.7,302,b (no detectable activity up to 5 μg/well),–,–,–,–,–
IKISGKWKAQFDRFLK [BPI.76],b (no detectable activity up to 5 μg/well),"10,519.55 pmol",>50,— (No proliferation decrease up to 50 μg/ml),144.4,128,b (no detectable activity up to 5 μg/well),"dramatically reduced activity, to levels lower than the original peptide (BPI.2)",–,–,–,–
IKISGKWKAQFRFLK [BPI.73],"2,313,133.50 pmol",57.28 pmol,22 ± 10,— (No proliferation decrease up to 50 μg/ml),413.4,227,"3,290.60 pmol",improved activity compared with the alanine substitution species,highly bactericidal,extremely high heparin capacity,–,–
KSKVGWLIQLFHKK [BPI.13p],–,–,2.0 ± 0.3,>50 µg/mL,–,–,–,–,–,–,–,–
KWKAAARFLKKWKAQKRFLK [BPI.46],"3,810,752.30 pmol",186.69 pmol,1.9 ± 1.9,18.8 ± 0.8 µg/mL,321.1,1070,"2,970.26 pmol",–,highly bactericidal,extremely high heparin capacity,–,–
"CC[C@H](C)[C@H](NC(=O)[C@H](CC(C)C)NC(=O)[C@H](Cc1cccc2ccccc12)NC(=O)CNC(=O)[C@@H](NC(=O)[C@H](CCCCN)NC(=O)[C@H](CO)NC(=O)[C@@H](N)CCCCN)C(C)C)C(=O)N[C@@H](CCC(N)=O)C(=O)N[C@@H](CC(C)C)C(=O)N[C@@H](Cc1ccccc1)C(=O)N[C@@H](Cc1cccc2ccccc12)C(=O)N[C@@H](CCCCN)C(=O)N[C@@H](CCCCN)C(=O)O [BPI.148, KSKVGAβ-(1-naphthyl)LIQLFAβ-(1-naphthyl)KK] (H-KSKVG[1Nal]LIQLF[1Nal]KK-OH; N-terminus and C-terminus assumed)",b (no detectable activity up to 5 μg/well),"4,206.57 pmol",–,–,–,–,b (no detectable activity up to 5 μg/well),–,–,–,50.00,–
IKISGKWKAFKRFLK [BPI.81],"9,477.20 pmol",283.84 pmol,–,14 ± 0.2 µg/mL,318.4,335,"3,018.90 pmol",–,–,–,–,unable to reverse the growth inhibitory effect of LPS
